Reference: patent US20230278972A1, “SUBSTITUTED HALOALKYL SULFONANILIDE HERBICIDES” (FMC Corporation, priority 2020, published 2023)

What was measured:
Format in all cases: in vivo
[1] = system: barnyardgrass (Echinochloa crus-galli); assay: Test B1 flooded paddy test, barnyardgrass; conditions: 250 g ai/ha, Flood, applied to paddy water, 2-leaf stage, visually evaluated after 10 to 14 days
From the text: (§1) A dash (-) response means no test result.

[2] = system: blackgrass (Alopecurus myosuroides); assay: Test A1 postemergence, blackgrass; conditions: 0 to 100 scale (0 no effect, 100 complete control)
From the text: (§2) Seeds of plant species selected from, blackgrass (Alopecurus myosuroides), corn (Zea mays), Foxtail, Giant (giant foxtail, Setaria faberi), goosegrass (Eleusine indica), kochia (Bassia scoparia), Oat, Wild (wild oat, Avena fatua), Pigweed, Palmer (palmer amaranth, palmer pigweed, Amaranthus palmeri), ragweed (common ragweed, Ambrosia artemisiifolia), Ryegrass, Italian (Italian ryegrass, Lolium multiflorum), soybean (Glycine max), and wheat (Triticum aestivum) were planted into a blend of loam soil and sand and treated preemergence with a directed soil spray using test chemicals formulated in a non-phytotoxic solvent mixture which included a surfactant. At the same time, plants selected from these crop and weed species and also galium (catchweed bedstraw, Galium aparine) and horseweed (Erigeron canadensis) were planted in pots containing the same blend of loam soil and sand and treated with postemergence applications of test chemicals formulated in the same manner. Plants ranged in height from 2 to 10 cm and were in the one- to two-leaf stage for the postemergence treatment. […] A dash (-) response means no test result.

[3] = system: corn (Zea mays); assay: Test A1 preemergence, corn
From the text: as §2

[4] = system: corn (Zea mays); assay: Test A1 postemergence, corn; conditions: 0 to 100 scale (0 no effect, 100 complete control); for Corn plant response rating: 31 g ai/ha, postemergence; for Plant response rating, Corn: Postemergence, 125 g ai/ha, 10 days
From the text: as §2

[5] = system: Oat, Wild (wild oat, Avena fatua); assay: Test A1 postemergence, Oat, Wild; conditions: 0 to 100 scale (0 no effect, 100 complete control); for Oat, Wild plant response rating: 31 g ai/ha, postemergence; for Plant response rating, Oat, Wild: Postemergence, 125 g ai/ha, 10 days
From the text: as §2

[6] = system: Pigweed, Palmer (palmer amaranth, palmer pigweed, Amaranthus palmeri); assay: Test A1 preemergence, Pigweed, Palmer
From the text: as §2

[7] = system: goosegrass (Eleusine indica); assay: Test A1 preemergence, goosegrass
From the text: as §2

[8] = system: ragweed (common ragweed, Ambrosia artemisiifolia); assay: Test A1 postemergence, ragweed; conditions: 0 to 100 scale (0 no effect, 100 complete control); for Ragweed plant response rating: 31 g ai/ha, postemergence; for Plant response rating, Ragweed: Postemergence, 125 g ai/ha, 10 days
From the text: as §2

[9] = system: ragweed (common ragweed, Ambrosia artemisiifolia); assay: Test A1 preemergence, ragweed
From the text: as §2

[10] = system: wheat (Triticum aestivum); assay: Test A1 preemergence, wheat
From the text: as §2

[11] = system: kochia (Bassia scoparia); assay: Test A1 postemergence, kochia; conditions: 0 to 100 scale (0 no effect, 100 complete control); for Kochia plant response rating: 31 g ai/ha, postemergence; for Plant response rating, Kochia: Postemergence, 125 g ai/ha, 10 days
From the text: as §2

[12] = system: Ryegrass, Italian (Italian ryegrass, Lolium multiflorum); assay: Test A1 preemergence, Ryegrass, Italian
From the text: as §2

[13] = system: horseweed (Erigeron canadensis); assay: Test A1 postemergence, horseweed; conditions: 0 to 100 scale (0 no effect, 100 complete control); for Horseweed plant response rating: 31 g ai/ha, postemergence; for Plant response rating, Horseweed: Postemergence, 125 g ai/ha, 10 days
From the text: as §2

[14] = system: galium (catchweed bedstraw, Galium aparine); assay: Test A1 postemergence, galium; conditions: 0 to 100 scale (0 no effect, 100 complete control); for Galium plant response rating: 31 g ai/ha, postemergence; for Plant response rating, Galium: Postemergence, 125 g ai/ha, 10 days
From the text: as §2

[15] = system: Foxtail, Giant (giant foxtail, Setaria faberi); assay: Test A1 preemergence, Foxtail, Giant
From the text: as §2

[16] = system: rice (Oryza sativa); assay: Test B1 flooded paddy test, rice; conditions: 250 g ai/ha, Flood, applied to paddy water, 2-leaf stage, visually evaluated after 10 to 14 days
From the text: as §1

[17] = system: soybean (Glycine max); assay: Test A1 preemergence, soybean
From the text: as §2

[18] = system: wheat (Triticum aestivum); assay: Test A1 postemergence, wheat; conditions: 0 to 100 scale (0 no effect, 100 complete control); for Wheat plant response rating: 31 g ai/ha, postemergence; for Plant response rating, Wheat: Postemergence, 125 g ai/ha, 10 days
From the text: as §2

[19] = system: Oat, Wild (wild oat, Avena fatua); assay: Test A1 preemergence, Oat, Wild
From the text: as §2

[20] = system: Foxtail, Giant (giant foxtail, Setaria faberi); assay: Test A1 postemergence, Foxtail, Giant; conditions: 0 to 100 scale (0 no effect, 100 complete control); for Foxtail, Giant plant response rating: 31 g ai/ha, postemergence; for Plant response rating, Foxtail, Giant: Postemergence, 125 g ai/ha, 10 days
From the text: as §2

[21] = system: goosegrass (Eleusine indica); assay: Test A1 postemergence, goosegrass; conditions: 0 to 100 scale (0 no effect, 100 complete control); for Goosegrass plant response rating: 31 g ai/ha, postemergence; for Plant response rating, Goosegrass: Postemergence, 125 g ai/ha, 10 days
From the text: as §2

[22] = system: kochia (Bassia scoparia); assay: Test A1 preemergence, kochia
From the text: as §2

[23] = system: ducksalad (Heteranthera limosa); assay: Test B1 flooded paddy test, ducksalad; conditions: 250 g ai/ha, Flood, applied to paddy water, 2-leaf stage, visually evaluated after 10 to 14 days
From the text: as §1

[24] = system: Pigweed, Palmer (palmer amaranth, palmer pigweed, Amaranthus palmeri); assay: Test A1 postemergence, Pigweed, Palmer; conditions: 0 to 100 scale (0 no effect, 100 complete control); for Pigweed, Palmer plant response rating: 31 g ai/ha, postemergence; for Plant response rating, Pigweed, Palmer: Postemergence, 125 g ai/ha, 10 days
From the text: as §2

[25] = system: Ryegrass, Italian (Italian ryegrass, Lolium multiflorum); assay: Test A1 postemergence, Ryegrass, Italian; conditions: 0 to 100 scale (0 no effect, 100 complete control); for Ryegrass, Italian plant response rating: 31 g ai/ha, postemergence; for Plant response rating, Ryegrass, Italian: Postemergence, 125 g ai/ha, 10 days
From the text: as §2

[26] = system: soybean (Glycine max); assay: Test A1 postemergence, soybean; conditions: 0 to 100 scale (0 no effect, 100 complete control); for Soybean plant response rating: 31 g ai/ha, postemergence; for Plant response rating, Soybean: Postemergence, 125 g ai/ha, 10 days
From the text: as §2

[27] = system: blackgrass (Alopecurus myosuroides); assay: Test A1 preemergence, blackgrass
From the text: as §2

[28] = 31 g ai/ha, 0 to 100 scale (0 no effect, 100 complete control)
[29] = 125 g ai/ha, 0 to 100 scale, 0 no effect, 100 complete control

Compound: Cc1cc(C)c(N(COC(=O)C(C)(C)C)S(=O)(=O)C(F)(F)F)cc1C1=NOC(C(C)C)C1 (centres unmarked) [Compound 383]
- Plant response rating, Barnyardgrass (0 to 100 scale, 0 is no effect, 100 is complete control) [1]: 98
- Blackgrass plant response rating ([2]; 31 g ai/ha, postemergence): 0
- Plant response rating, Blackgrass ([2]; Postemergence, 125 g ai/ha, 10 days): 50
- Plant response rating, Corn [3, 28]: 0
- Plant response rating, Corn [3, 29]: 0
- Corn plant response rating [4]: 0
- Plant response rating, Corn [4]: 0
- Oat, Wild plant response rating [5]: 0
- Plant response rating, Oat, Wild [5]: 10
- Plant response rating, Pigweed, Palmer [6, 28]: 0
- Plant response rating, Pigweed, Palmer [6, 29]: 0
- Plant response rating, Goosegrass [7, 28]: 0
- Plant response rating, Goosegrass [7, 29]: 80
- Ragweed plant response rating [8]: 30
- Plant response rating, Ragweed [8]: 40
- Plant response rating, Ragweed [9, 28]: 0
- Plant response rating, Ragweed [9, 29]: 0
- Plant response rating, Wheat [10, 28]: 20
- Plant response rating, Wheat [10, 29]: 20
- Kochia plant response rating [11]: 20
- Plant response rating, Kochia [11]: 20
- Plant response rating, Ryegrass, Italian [12, 28]: 0
- Plant response rating, Ryegrass, Italian [12, 29]: 40
- Horseweed plant response rating [13]: 0
- Plant response rating, Horseweed [13]: 30
- Galium plant response rating [14]: 0
- Plant response rating, Galium [14]: 60
- Plant response rating, Foxtail, Giant [15, 28]: 0
- Plant response rating, Foxtail, Giant [15, 29]: 20
- Plant response rating, Rice (0 to 100 scale, 0 is no effect, 100 is complete control) [16]: 10
- Plant response rating, Soybean [17, 28]: 0
- Plant response rating, Soybean [17, 29]: 0
- Wheat plant response rating [18]: 0
- Plant response rating, Wheat [18]: 70
- Plant response rating, Oat, Wild [19, 28]: 0
- Plant response rating, Oat, Wild [19, 29]: 30
- Foxtail, Giant plant response rating [20]: 0
- Plant response rating, Foxtail, Giant [20]: 60
- Goosegrass plant response rating [21]: 0
- Plant response rating, Goosegrass [21]: 20
- Plant response rating, Kochia [22, 28]: 0
- Plant response rating, Kochia [22, 29]: 0
- Plant response rating, Ducksalad (0 to 100 scale, 0 is no effect, 100 is complete control) [23]: 25
- Pigweed, Palmer plant response rating [24]: 0
- Plant response rating, Pigweed, Palmer [24]: 10
- Ryegrass, Italian plant response rating [25]: 0
- Plant response rating, Ryegrass, Italian [25]: 0
- Soybean plant response rating [26]: 30
- Plant response rating, Soybean [26]: 50

Compound: Cc1cc(Cl)c(NS(=O)(=O)C(F)(F)F)cc1N1CC2(CCCCC2)OC1=O [Compound 394]
- Plant response rating, Barnyardgrass (0 to 100 scale, 0 is no effect, 100 is complete control) [1]: 0
- Plant response rating, Corn [3, 28]: 0
- Plant response rating, Corn [3, 29]: 20
- Corn plant response rating [4]: 0
- Plant response rating, Corn [4]: 40
- Oat, Wild plant response rating [5]: 0
- Plant response rating, Oat, Wild [5]: 0
- Plant response rating, Pigweed, Palmer [6, 28]: 20
- Plant response rating, Pigweed, Palmer [6, 29]: 90
- Plant response rating, Goosegrass [7, 28]: 80
- Plant response rating, Goosegrass [7, 29]: 100
- Ragweed plant response rating [8]: 90
- Plant response rating, Ragweed [8]: 90
- Plant response rating, Ragweed [9, 28]: 40
- Plant response rating, Ragweed [9, 29]: 90
- Plant response rating, Wheat [10, 28]: 30
- Plant response rating, Wheat [10, 29]: 70
- Plant response rating, Blackgrass [27, 28]: 0
- Plant response rating, Blackgrass [27, 29]: 70
- Kochia plant response rating [11]: 40
- Plant response rating, Kochia [11]: 80
- Plant response rating, Ryegrass, Italian [12, 28]: 40
- Plant response rating, Ryegrass, Italian [12, 29]: 100
- Horseweed plant response rating [13]: 30
- Plant response rating, Horseweed [13]: 80
- Galium plant response rating [14]: 100
- Plant response rating, Galium [14]: 100
- Plant response rating, Foxtail, Giant [15, 28]: 90
- Plant response rating, Foxtail, Giant [15, 29]: 100
- Plant response rating, Rice (0 to 100 scale, 0 is no effect, 100 is complete control) [16]: 0
- Plant response rating, Soybean [17, 28]: 50
- Plant response rating, Soybean [17, 29]: 60
- Wheat plant response rating [18]: 10
- Plant response rating, Wheat [18]: 40
- Plant response rating, Oat, Wild [19, 28]: 20
- Plant response rating, Oat, Wild [19, 29]: 90
- Foxtail, Giant plant response rating [20]: 0
- Plant response rating, Foxtail, Giant [20]: 50
- Goosegrass plant response rating [21]: 0
- Plant response rating, Goosegrass [21]: 30
- Plant response rating, Kochia [22, 28]: 30
- Plant response rating, Kochia [22, 29]: 60
- Plant response rating, Ducksalad (0 to 100 scale, 0 is no effect, 100 is complete control) [23]: 85
- Pigweed, Palmer plant response rating [24]: 50
- Plant response rating, Pigweed, Palmer [24]: 50
- Ryegrass, Italian plant response rating [25]: 20
- Plant response rating, Ryegrass, Italian [25]: 40
- Soybean plant response rating [26]: 10
- Plant response rating, Soybean [26]: 60
